Patent publication US9067894B1, “Compound, composition, and method of activating GIRK potassium channel and use of same for treating conditions of interest” (Vanderbilt University, priority 2013, dated 2015)

Experiments:
Transporter, NET = target: T1, Transporter, NET (Homo sapiens, UniProt P23975); test: Radioligand displacement (Ricerca); assay type: binding
T1 construct: Ricerca (contract panel)

GIRK1/2 = target: T2, GIRK1/2 (Homo sapiens, UniProt P48051+P48549); test: Thallium flux assay, HEK-293 cells expressing GIRK1/2; assay type: cell-based; parameters: host or cells: HEK-293; settings: cell line GIRK1-2; average ± SEM; read-out: EC50 Thallium Flux
T2 sequence (P48549 1-501): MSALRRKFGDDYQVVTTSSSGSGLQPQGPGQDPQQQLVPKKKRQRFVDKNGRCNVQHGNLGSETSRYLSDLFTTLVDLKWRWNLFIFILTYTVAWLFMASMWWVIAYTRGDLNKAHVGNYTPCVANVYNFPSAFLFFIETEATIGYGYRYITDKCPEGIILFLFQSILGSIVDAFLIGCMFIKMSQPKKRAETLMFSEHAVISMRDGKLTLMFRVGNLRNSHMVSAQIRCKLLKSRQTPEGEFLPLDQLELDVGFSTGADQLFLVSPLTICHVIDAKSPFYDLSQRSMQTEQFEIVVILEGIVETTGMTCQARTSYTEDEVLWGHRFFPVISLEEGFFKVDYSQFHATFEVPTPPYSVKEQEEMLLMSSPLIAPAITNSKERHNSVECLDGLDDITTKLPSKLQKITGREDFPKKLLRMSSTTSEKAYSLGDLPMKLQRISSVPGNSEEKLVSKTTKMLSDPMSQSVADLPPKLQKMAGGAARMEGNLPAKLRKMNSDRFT
T2 sequence (P48051 1-423): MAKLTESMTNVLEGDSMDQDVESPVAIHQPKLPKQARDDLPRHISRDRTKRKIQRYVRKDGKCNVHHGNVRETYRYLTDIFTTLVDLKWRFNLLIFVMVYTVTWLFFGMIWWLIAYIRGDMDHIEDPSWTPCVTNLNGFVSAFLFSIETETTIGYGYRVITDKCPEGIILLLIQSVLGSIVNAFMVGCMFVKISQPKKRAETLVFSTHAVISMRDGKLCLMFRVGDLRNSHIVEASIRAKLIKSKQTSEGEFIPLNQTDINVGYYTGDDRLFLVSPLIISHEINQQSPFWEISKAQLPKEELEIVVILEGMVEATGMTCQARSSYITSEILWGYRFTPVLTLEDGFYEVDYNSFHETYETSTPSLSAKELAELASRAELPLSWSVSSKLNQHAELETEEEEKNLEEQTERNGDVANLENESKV
Text: Cell Line Construction and Cell Culture. HEK-293 cells co-expressing human GIRK1/2 and rat mGlu8 were generated as previously described (Niswender et al., 2008). A HEK-293 cell line (ATCC, Manassas, Va.) expressing human GIRK1 and human GIRK2 was constructed by transfecting HEK-293 cells with GIRK1 and GIRK2 (Origene, Rockville, Md.) cloned into the pBudCE4.1 vector (Life Technologies, Carlsbad, Calif.) using FuGene 6 (Promega, Madison, Wis.) transfection reagent. Unless otherwise noted, other ion channel-expressing cells were prepared by transfecting HEK-293 cells with individual or combinations of subunits: GIRK1, pCMV6-A-BSD; GIRK2, pCMV6-A-puro; GIRK3, pCMV6-A-hygro; GIRK4, pCMV6-A-AC; Kv7.4, pIRESneo3. The Kir2.1 and hERG-expressing cell lines were made by transfecting T-REx-293 cells (Life Technologies, Carlsbad, Calif.) with Kir2.1 and Kv11.1, respectively, cloned into pcDNA5TO. Monoclonal cell lines were produced by limiting-dilution cloning of antibiotic-resistant cells and functional selection using the thallium flux assay described below. Unless otherwise noted, cells were maintained in Minimal Essential Medium, Alpha Medium (Mediatech, Manassas, Va.) supplemented with 10% fetal bovine serum (Sigma-Aldrich, Saint Louis, Mo.) and GlutaGro (Mediatech, Manassas, Va.), referred to henceforth as cell culture medium. […]

Nicotinic acetylcholine = test: Radioligand displacement (Ricerca), first nicotinic entry; assay type: binding, human; settings: 10 μM; first Nicotinic acetylcholine line
Serotonin 5-HT1A = target: T3, Serotonin 5-HT1A (Homo sapiens, UniProt P08908); test: Radioligand displacement (Ricerca); assay type: binding
T3 construct: Ricerca (contract laboratory that ran the panel)
T3 sequence (P08908 whole entry): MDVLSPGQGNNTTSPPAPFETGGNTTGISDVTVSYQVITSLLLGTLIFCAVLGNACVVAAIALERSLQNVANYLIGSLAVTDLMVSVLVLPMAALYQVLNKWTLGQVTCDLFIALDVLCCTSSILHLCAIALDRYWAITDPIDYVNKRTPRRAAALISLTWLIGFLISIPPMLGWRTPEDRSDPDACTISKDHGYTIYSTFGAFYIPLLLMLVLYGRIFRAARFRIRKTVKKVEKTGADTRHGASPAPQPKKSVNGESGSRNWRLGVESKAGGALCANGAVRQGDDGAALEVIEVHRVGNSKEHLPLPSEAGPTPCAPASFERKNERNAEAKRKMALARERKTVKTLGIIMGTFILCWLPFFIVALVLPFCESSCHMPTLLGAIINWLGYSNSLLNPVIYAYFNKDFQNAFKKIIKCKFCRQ

Glutamate (NMDA agonism) = test: Radioligand displacement (Ricerca); assay type: binding, rat; settings: 10 μM

T1 sequence (P23975 whole entry): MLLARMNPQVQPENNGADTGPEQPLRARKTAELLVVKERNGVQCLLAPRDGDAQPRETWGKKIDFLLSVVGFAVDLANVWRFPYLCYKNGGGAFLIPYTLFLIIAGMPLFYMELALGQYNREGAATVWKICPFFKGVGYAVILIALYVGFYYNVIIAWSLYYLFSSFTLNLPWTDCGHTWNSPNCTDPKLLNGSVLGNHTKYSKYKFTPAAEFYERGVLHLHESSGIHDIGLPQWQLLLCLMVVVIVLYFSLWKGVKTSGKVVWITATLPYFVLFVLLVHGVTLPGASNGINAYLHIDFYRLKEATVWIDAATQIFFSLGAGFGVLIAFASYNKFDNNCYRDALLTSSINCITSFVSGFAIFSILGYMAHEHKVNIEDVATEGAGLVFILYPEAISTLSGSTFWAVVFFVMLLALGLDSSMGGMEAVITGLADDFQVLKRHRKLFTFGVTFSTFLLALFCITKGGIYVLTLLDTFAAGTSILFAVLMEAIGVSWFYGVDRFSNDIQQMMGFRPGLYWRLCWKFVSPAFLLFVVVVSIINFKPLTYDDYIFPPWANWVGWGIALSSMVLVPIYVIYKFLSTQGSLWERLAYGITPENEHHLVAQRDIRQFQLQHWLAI

SMILES: Cc1cc(NC(=O)Nc2ccc(F)c(F)c2)n(-c2ccccc2)n1 [VU0456810, 1-(3,4-difluorophenyl)-3-(3-methyl-1-phenyl-1H-pyrazol-5-yl)urea]
- inhibition at 10 µM (Transporter, NET): 15%
- EC50 (GIRK1/2): 162 ± 89 nM
- % Inhibition (Nicotinic acetylcholine): 0%
- inhibition at 10 µM (Serotonin 5-HT1A): 0%
- % Inhibition (Glutamate (NMDA agonism)): 21%
